Test results published in the NIST ThermoML archive (doi:10.1021/je050074w).

Experiment: an = mass per volume of the nth substance listed, in kg/m3
Conditions: Wilhelmy plate method

CCCCCCCCCCCCOS(=O)(=O)[O-].[Na+] [sodium dodecyl sulfate] + O
surface tension liquid-gas [mN/m]
Conditions	a1 = 0.00627	a1 = 0.0157	a1 = 0.0273	a1 = 0.0338
288.15 K	71.99	65.28	64.13	69.24
289.15 K	71.91	65.17	64.05	69.1
290.15 K	71.74	65	63.88	68.89
291.15 K	71.58	64.83	63.72	68.76
292.15 K	71.41	64.67	63.56	68.59
293.15 K	71.24	64.48	63.37	68.45
294.15 K	71.07	64.32	63.19	68.28
295.15 K	70.89	64.17	63.02	68.11
296.15 K	70.76	64.03	62.88	67.97
297.15 K	70.59	63.86	62.74	67.78
298.15 K	70.43	63.71	62.6	67.63
299.15 K	70.29	63.57	62.49	67.44
300.15 K	70.16	63.41	62.36	67.29
301.15 K	70.01	63.26	62.25	67.11
302.15 K	69.84	63.08	62.11	66.95
303.15 K	69.68	62.94	62.01	66.77
304.15 K	69.53	62.76	61.9	66.61
305.15 K	69.39	62.66	61.83	66.42
306.15 K	69.23	62.52	61.72	66.25
307.15 K	69.08	62.32	61.62	66.04
308.15 K	68.94	62.16	61.54	–
